Reference: US9682954B2, “Phenanthridine derivatives, preparation methods and uses thereof” (Kunming Institute of Botany, The Chinese Academy of Sciences, priority 2013, dated 2017)
Read-outs that look alike come from different tables or passages of the source.

Key:
in vitro = conditions: human
Method: (§1) (1) Toxicity Experiment of the Compound on Huh7.5:
(§2) 100 μL of Huh7.5 cells (1×10^5/ml) was inoculated in 96-wells plates and incubated in an incubator at 37° C. under 5% of CO2 and saturated humidity for 24 hrs. Then different concentration of the compound of the present invention and positive control (VX-950, telaprevir) were added respectively and incubated for a further 72 hrs. 10 μL of MTT (5 mg/mL) was added per well and incubated for another 4 hrs. After the cells were lysed with DMSO, OD570-630 […] was determined on ELIASA. In comparison with OD of the control group, inhibitory rate of each concentration on cell toxicity was calculated, and half toxic concentration of the compound was calculated with Reed-Muench method.

HCV = assay: microbe, parasite or virus in culture; type: cell-based, Hepatitis C Virus (HCV); conditions: Huh7.5 cells infected with HCV, intracellular HCV RNA by qRT-PCR, Reed-Muench method
Method: (2) Anti-HCV Activity of the Compound in Cells:
The total RNA was extracted from the cells. The intracellular content of HCV and RNA of internal control gene GAPDH were determined by real-time fluorescence qRT-PCR.

Huh7.5 cells = assay: in vitro
Method: as §1, §2

Wnt signaling pathway = assay: Activity assay of the reporter gene (Wnt signaling pathway activation, Wnt3a conditioned medium); type: cell-based; conditions: for activation of the reporter gene systems of classical Wnt signaling pathway: in the way of depending on Wnt3a receptors; for Concentration of compounds for doubly synergetic activating Wnt reporter gene: with Wnt3a conditioned medium
Method: After 6 hours, the cells are collected and activities of the report genes are determined.
Activity Assay of the Reporter Gene
HEK293T, HCT116, SW480 or NIH3T3 cells used for activity assay of the reporter gene were inoculated into 24-wells plates respectively 24 hours before transfection then transfected following the above mentioned reference method. The amount of the plasmids used for Transfection was: 20 ng of TOPFlash, NFAT-Luc, or SRF-Luc, and 25 ng of EGFP-C1 (HEK293T); 25 ng of LEF-Luc, 75 ng of LEF1, and 25 ng of EGFP-C1 (NIH3T3); 100 ng of TOPFlash or Fopfllash and 100 ng of EGFP-C1 (HCT116 and SW480). The cells were transfected with other plasmids following experimental requirements, LacZs were added to meet a total content of 250 ng (in RNAi and plasmid co-transfection experiments, 1 μl of siRNA was added when every 100 ng/well of the plasmid was transfected). Wnt3a conditioned medium was added 18 hours after transfection to stimulate the cells for 6-8 hours, the cells were lysed using Boehringer Mannheim Luci-ferase Assay Kit (200 μl/well). Intensity of GFP proteins in cell lysates were determined as internal standards of expression quantity of the cells using fluorescence meter FL600 (BIO-TEK Inc. Winooski, Vt.), and then 20 μl of luciferase substrates were added. Luciferase activity was determined with Micro Lumate Plus (Perkin Elmer Inc. Wellesley, Mass.) luminometer. Finally, the luciferase activity was homogenized using activity of GFP.

[1] = Hepatitis C virus, Huh7.5, 72 h

SMILES	CC50 at 72 h (in vitro)	EC50 (HCV; [1])	other results
C=CCOc1cc2c(cc1OCC=C)-c1cccc(CC)c1N(C)C2 [Compound 10c, 4-ethyl-5-methyl-8,9-diallyloxy-5,6-dihydro-phenanthridine]	> 100 µM	16.3 ± 10.1 µM	
CCc1cccc2c1N(C)Cc1cc(OC(C)=O)c(OC(C)=O)cc1-2 [Compound 10j, 4-ethyl-5-methyl-8,9-diacetoxy-5,6-dihydro-phenanthridine]	90.1 ± 7.4 µM	0.23 ± 0.08 µM	
C=Cc1cccc2c1N(C)Cc1cc(OCC3CCC3)c(OCC3CCC3)cc1-2 [Compound 11c, 4-ethenyl-5-methyl-8,9-bis-cyclobutylmethoxy-5,6-dihydro-phenanthridine]	> 100 µM	11.3 ± 1.66 µM	
CCc1cccc2c1N(C)Cc1cc(OC(=O)C(C)C)c(OC(=O)C(C)C)cc1-2 [Compound 10l, 4-ethyl-5-methyl-8,9-diisobutyryloxy-5,6-dihydro-phenanthridine]	> 100 µM	13.9 ± 11.4 µM	
C=Cc1cccc2c1N(C)Cc1cc(OC(=O)c3ccccc3)c(OC(=O)c3ccccc3)cc1-2 [Compound 11m, 4-ethenyl-5-methyl-8,9-dibenzoyloxy-5,6-dihydro-phenanthridine]	> 100 µM	1.03 ± 0.07 µM	
C=Cc1cccc2c1N(C)Cc1cc(OC(=O)CC(C)C)c(OC(=O)CC(C)C)cc1-2 [Compound 11l, 4-ethenyl-5-methyl-8,9-diisovaleroxy-5,6-dihydro-phenanthridine]	> 100 µM	3.27 ± 1.26 µM	
CCc1cccc2c1N(C)Cc1cc(OC(=O)c3ccccc3)c(OC(=O)c3ccccc3)cc1-2 [Compound 10o, 4-ethyl-5-methyl-8,9-dibenzoyloxy-5,6-dihydro-phenanthridine]	91.5 ± 4.19 µM	11 ± 2.23 µM	
CCc1cccc2c1N(C)Cc1cc(OCc3cccc(OC)c3OC)c(OCc3cccc(OC)c3OC)cc1-2 [Compound 10h, 4-ethyl-5-methyl-8,9-di(2,3-dimethoxy)benzyloxy-5,6-dihydro-phenanthridine]			CC50 (Huh7.5 cells): > 100 µM; EC50 (HCV; 72 hrs, read-out: EC50): 4.32 ± 0.1 µM
C=CCOc1cc2c(cc1OCC=C)-c1cccc(C=C)c1N(C)C2 [Compound 11a, 4-ethenyl-5-methyl-8,9-diallyloxy-5,6-dihydro-phenanthridine]	> 100 µM	28.8 ± 5.38 µM	
CCc1cccc2c1N(C)Cc1cc(OC)c(OC)cc1-2 [Compound 10a, 4-ethyl-5-methyl-8,9-dimethoxy-5,6-dihydro-phenanthridine]	> 100 µM	< 0.41 µM	
CCc1cccc2c1N(C)Cc1cc(OCC3CCC3)c(OCC3CCC3)cc1-2 [Compound 10e, 4-ethyl-5-methyl-8,9-bis-cyclobutylmethoxy-5,6-dihydro-phenanthridine]	> 100 µM	9.5 ± 2.71 µM	
C#CCOc1cc2c(cc1OCC#C)-c1cccc(CC)c1N(C)C2 [Compound 10d, 4-ethyl-5-methyl-8,9-diprop-2-ynyloxy-5,6-dihydro-phenanthridine]	58.3 ± 2.1 µM	0.83 ± 0.35 µM	
C=Cc1cccc2c1N(C)Cc1cc(OCC3CCCCC3)c(OCC3CCCCC3)cc1-2 [Compound 11d, 4-ethenyl-5-methyl-8,9-bis-cyclohexylmethoxy-5,6-dihydro-phenanthridine]	> 100 µM	> 33.3 µM	
CCc1cccc2c1N(C)Cc1cc3c(cc1-2)OCO3 [Compound 9, 4-ethyl-5-methyl-5,6-dihydro-[1,3]dioxolo[4,5-j]phenanthridine]			activation of the reporter gene systems of classical Wnt signaling pathway (Wnt signaling pathway): activate the reporter gene systems of classical Wnt signaling pathway; Concentration of compounds for doubly synergetic activating Wnt reporter gene (Wnt signaling pathway): 3.75 µM
C=Cc1cccc2c1N(C)Cc1cc(OCc3cn(CCNC(C)=O)nn3)c(OCc3cn(CCNC(C)=O)nn3)cc1-2 [Compound 11r, 4-ethenyl-5-methyl-8,9-bis[1-(2-acetylamino-ethyl)-1H-[1,2,3]triazol-4-ylmethoxy]-5,6-dihydro-phenanthridine]			activation of the reporter gene systems of classical Wnt signaling pathway (Wnt signaling pathway): activate the reporter gene systems of classical Wnt signaling pathway; Concentration of compounds for doubly synergetic activating Wnt reporter gene (Wnt signaling pathway): 5 µM
C=Cc1cccc2c1N(C)Cc1cc(O)c(O)cc1-2 [Compound 11, 4-ethenyl-5-methyl-5,6-dihydrophenanthridine-8,9-diol]	> 100 µM	8.37 ± 2.39 µM	
C=Cc1cccc2c1N(C)Cc1cc(OCc3ccc(C#N)cc3)c(OCc3ccc(C#N)cc3)cc1-2 [Compound 11g, 4-ethenyl-5-methyl-8,9-di(4-cyano)benzyloxy-5,6-dihydro-phenanthridine]			CC50 (Huh7.5 cells): 25.9 ± 0.82 µM; EC50 (HCV; 72 hrs, read-out: EC50): > 0.37 µM
CCCCC(=O)Oc1cc2c(cc1OC(=O)CCCC)-c1cccc(CC)c1N(C)C2 [Compound 10m, 4-ethyl-5-methyl-8,9-divaleryoxy-5,6-dihydro-phenanthridine]			CC50 (Huh7.5 cells): > 100 µM; EC50 (HCV; 72 hrs, read-out: EC50): 9.39 ± 0.46 µM
C=Cc1cccc2c1N(C)Cc1cc(OCc3ccccc3)c(OCc3ccccc3)cc1-2 [Compound 11e, 4-ethenyl-5-methyl-8,9-dibenzyloxy-5,6-dihydro-phenanthridine]	> 100 µM	13.4 ± 0.98 µM	
CCc1cccc2c1N(C)Cc1cc(OC(=O)c3ccc(Br)cc3)c(OC(=O)c3ccc(Br)cc3)cc1-2 [Compound 10p, 4-ethyl-5-methyl-8,9-di(4-bromo)benzoyloxy-5,6-dihydro-phenanthridine]			CC50 (Huh7.5 cells): > 100 µM; EC50 (HCV; 72 hrs, read-out: EC50): 1.19 ± 0.02 µM
CCc1cccc2c1N(C)Cc1cc(OCC3CCCCC3)c(OCC3CCCCC3)cc1-2 [Compound 10f, 4-ethyl-5-methyl-8,9-bis-cyclohexylmethoxy-5,6-dihydro-phenanthridine]	> 100 µM	10.8 ± 2.86 µM	
C#CCOc1cc2c(cc1OCC#C)-c1cccc(C=C)c1N(C)C2 [Compound 11b, 4-ethenyl-5-methyl-8,9-di(prop-2-ynyloxy)-5,6-dihydro-phenanthridine]	> 100 µM	4.2 ± 1.72 µM	
CCc1cccc2c1N(C)Cc1cc(O)c(O)cc1-2 [Compound 10, 4-ethyl-5-methyl-5,6-dihydro-phenanthridine-8,9-diol]	61.3 ± 8.4 µM	> 11.1 µM	
CCc1cccc2c1N(C)Cc1cc(OCc3cn(CCNC(C)=O)nn3)c(OCc3cn(CCNC(C)=O)nn3)cc1-2 [Compound 10r, 4-ethyl-5-methyl-8,9-bis[1-(2-acetylamino-ethyl)-1H-[1,2,3]triazol-4-ylmethoxy]-5,6-dihydro-phenanthridine]			activation of the reporter gene systems of classical Wnt signaling pathway (Wnt signaling pathway): activate the reporter gene systems of classical Wnt signaling pathway; Concentration of compounds for doubly synergetic activating Wnt reporter gene (Wnt signaling pathway): 1.25 µM
CCc1cccc2c1N(C)Cc1cc(OCc3ccccc3)c(OCc3ccccc3)cc1-2 [Compound 10g, 4-ethyl-5-methyl-8,9-dibenzyloxy-5,6-dihydro-phenanthridine]	30.2 ± 0.6 µM	1.25 ± 0.56 µM	
C=Cc1cccc2c1N(C)Cc1cc(OCc3cn(CCN)nn3)c(OCc3cn(CCN)nn3)cc1-2 [Compound 11q, 4-ethenyl-5-methyl-8,9-bis[1-(2-amino-ethyl)-1H-[1,2,3]triazol-4-ylmethoxy]-5,6-dihydrophenanthridine]			activation of the reporter gene systems of classical Wnt signaling pathway (Wnt signaling pathway): activate the reporter gene systems of classical Wnt signaling pathway; Concentration of compounds for doubly synergetic activating Wnt reporter gene (Wnt signaling pathway): 2.5 µM
C=Cc1cccc2c1N(C)Cc1cc(OC(C)=O)c(OC(C)=O)cc1-2 [Compound 11h, 4-ethenyl-5-methyl-8,9-diacetoxy-5,6-dihydro-phenanthridine]	> 100 µM	1.63 ± 0.91 µM	
C=Cc1cccc2c1N(C)Cc1cc(OC(=O)CC)c(OC(=O)CC)cc1-2 [Compound 11i, 4-ethenyl-5-methyl-8,9-dipropionyloxy-5,6-dihydro-phenanthridine]	> 100 µM	1.02 ± 0.16 µM	
CCc1cccc2c1N(C)Cc1cc(OC(=O)CC(C)C)c(OC(=O)CC(C)C)cc1-2 [Compound 10n, 4-ethyl-5-methyl-8,9-diisovaleroxy-5,6-dihydro-phenanthridine]	50.3 ± 1 µM	1.43 ± 0.45 µM	
C=Cc1cccc2c1N(C)Cc1cc(OC(=O)C(C)C)c(OC(=O)C(C)C)cc1-2 [Compound 11j, 4-ethenyl-5-methyl-8,9-diisobutyryloxy-5,6-dihydro-phenanthridine]	> 100 µM	1.83 ± 0.17 µM	
